Reference: patent US8217004B2, “Sequestering agent for micronutrient fertilisers” (priority 2005, dated 2012)

Key:
Canola [1] = test: Pot experiment: availability of Zn fertiliser to Canola grown on alkaline and calcareous soils; format: in vivo, Canola (variety Pinnacle); conditions: calcareous grey sandy loam (Streaky Bay) and Sodosol (Birchip); 21 days; FIG. 2; LSD=1.72; p<0.01
Text: Topsoils from each location were collected, oven dried and passed through a 2 mm sieve. The experimental fertilisers were mixed with 20g of soil, which was banded between 100 g of the unfertilised bulk soil. Total nutrient application equated to (μg/g soil) P 60, N 27, applied as TGMAP, and Zn 0.2 as ZnSO4.7H2O. Chelate rates were based on the concentrations required to complex between 75 and 100% of the Zn in the fertiliser solution. Rates varied depending on the equilibrium constant (logK) and the stoichiometry of the Zn-ligand complexes. […] Each treatment was replicated four times.
Two pre-germinated Canola seeds (variety Pinnacle) were transferred to each pot. The pots were watered to θg=0.5 with deionised water every second day and evaporation was reduced with polyethylene beads, which were spread over the exposed surface of each pot. The plants were grown for 21 days in a controlled environment growth chamber (10 h dark at 15° C., 14 h light at 20° C., 41% humidity) before the shoots were harvested, rinsed, dried, weighed and then digested in concentrated HNO3. Plant digests were analysed for ^65Zn by gamma spectroscopy and for total nutrient contents by ICP-OES.
Data for shoot dry weight, shoot nutrient concentrations and Zn fertiliser uptake were analysed by analysis of variance (ANOVA). Significance between means was determined using the Least Significant Difference (LSD) test.

[2] = published value; cited from earlier work
Canola [3] = test: Canola dry matter response to foliar applied Zn (shoot immersion); format: in vivo, Canola (var. Pinnacle); conditions: Zn deficient Canola, shoots immersed five seconds; compared with ZnSO4 or ZnEDTA; FIG. 3; P<0.05, LSD=0.1496
Text: Dry matter response in Zn deficient Canola was used as a measure of fertiliser effectiveness because it considers metabolically available Zn, rather than total Zn uptake. Pre-germinated Canola seedlings (var. […] After 13 days, whole shoots were immersed in ZnSO4.7H2O solutions for five seconds. […] Rhamnolipid rates were high enough to ensure a Zn Kow of at least 50 at the highest Zn application rate. […] Wetting agent was not required in the Rhamnolipid solutions because of the surfactant properties of the ligand. […] After the three-week growth period, plant roots and shoots were harvested, dried and weighed for dry matter production.

[4] = n-Octanol/water partition coefficients (Kow) of metal-ligand complexes, shake-flask method; format: physicochemical
Text: n-Octanol/water partition coefficients (Kow) are commonly used to determine whether molecules can partition into hydrophobic (lipid-soluble) phases. Polar molecules, ie metals, generally partition in the water phase. Neutral, lipid soluble organic molecules may partition within the octanol phase according to their Kow. Most conventional chelate complexes (ie ZnEDTA^2−) partition within the water phase. […] The aim of this experiment was to determine whether Zn-Rhamnolipid complexes would partition within the n-octanol phase. Kow's were measured with varying Rhamnolipid concentrations. […] Final Rhamnolipid concentrations were (mM) 0, 0.1, 0.24, 0.5, 1, 1.5, 2, 2.5. Two millilitres of n-Octanol was added to the solutions before they were shaken end-over-end for 24 hours. Following shaking, 3 ml of solution was removed from the water phase and digested in concentrated HNO3 before analysis for total Zn by ICP-OES. The partition coefficient was calculated according to the equation above.

Zn Kow ([4]; at the Rhamnolipid rates used for foliar test, at the highest Zn application rate) | Compound | total Zn uptake by canola (roots absorbed and translocated into shoots) (Canola [1]) | logK of Zn complex [2] | plant foliar dry matter response to applied Zn (Canola [3]) | partitioning of metal-ligand complex into the n-octanol phase (Kow) ([4]; Zn, Mn, Cu, shake-flask, 24 hours, FIG. 1)
– | O=C(O)CN(CCN(CC(=O)O)CC(=O)O)CC(=O)O [EDTA, reference compound] | ineffective | – | – | –
– | O=C([O-])CN(CCN(CC(=O)O)CC(=O)O)CC(=O)[O-].[Zn+2] [ZnEDTA] | – | 16.5 | – | –
at least 50 | rhamnolipid | significantly increased total Zn uptake | – | significantly increased dry matter response to Zn | dramatically facilitates the transfer of the metal ion from the aqueous phase into the octanol phase
